From the supplement of paper PMC10307832

Assays:
Test in all cases: relative viability (nuclei count vs DMSO), 5 days (fraction); higher = more cells survive
[1] = system: HARA
Procedure, shortened: (§1)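 Lung cancer cell lines in 1536-well plates got either a single drug or a fixed anchor-drug dose together with five library-drug doses (not always all listed) in √10 steps, by pin tool, on the day after seeding. Nuclei were counted after 5 days, and relative viability is the treated-to-vehicle ratio of nuclei counts. Values are medians of duplicate plates.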

[2] = system: NCI-H2170
Procedure, shortened: as §1

[3] = system: LXF-289
Procedure, shortened: as §1

[4] = system: HOP-62
Procedure, shortened: as §1

[5] = system: NCI-H1993
Procedure, shortened: as §1

[6] = system: SK-LU-1
Procedure, shortened: as §1

[7] = system: NCI-H2009
Procedure, shortened: as §1

[8] = system: NCI-H3122
Procedure, shortened: as §1

[9] = system: SK-MES-1
Procedure, shortened: as §1

[10] = system: A-427
Procedure, shortened: as §1

[11] = system: COR-L23
Procedure, shortened: as §1

SMILES: NC(=O)Nc1cc(-c2cccc(F)c2)sc1C(=O)N[C@H]1CCCNC1 [AZD7762] + Cc1nc(NC(=O)N2CCC[C@H]2C(N)=O)sc1-c1ccnc(C(C)(C)C(F)(F)F)c1 [Alpelisib] (partner 2 µM)
- relative viability ([1]; first compound 0.01 µM): 0.889
- relative viability ([1]; first compound 0.03162 µM): 0.887
- relative viability ([1]; first compound 0.1 µM): 0.825
- relative viability ([1]; first compound 0.3162 µM): 0.751
- relative viability ([1]; first compound 1 µM): 0.824
- relative viability ([2]; first compound 0.01 µM): 0.843
- relative viability ([2]; first compound 0.03162 µM): 0.75
- relative viability ([2]; first compound 0.1 µM): 0.727
- relative viability ([2]; first compound 0.3162 µM): 0.797
- relative viability ([2]; first compound 1 µM): 0.776
- relative viability ([3]; first compound 0.01 µM): 1.01
- relative viability ([3]; first compound 0.03162 µM): 1.07
- relative viability ([3]; first compound 0.1 µM): 1.12
- relative viability ([3]; first compound 0.3162 µM): 1.04
- relative viability ([3]; first compound 1 µM): 1.14
- relative viability ([4]; first compound 0.01 µM): 0.918
- relative viability ([4]; first compound 0.03162 µM): 1.22
- relative viability ([4]; first compound 0.1 µM): 0.836
- relative viability ([4]; first compound 0.3162 µM): 1.04
- relative viability ([4]; first compound 1 µM): 1.36
- relative viability ([5]; first compound 0.01 µM): 0.671
- relative viability ([5]; first compound 0.03162 µM): 0.708
- relative viability ([5]; first compound 0.1 µM): 0.651
- relative viability ([5]; first compound 0.3162 µM): 0.673
- relative viability ([5]; first compound 1 µM): 0.753
- relative viability ([6]; first compound 0.01 µM): 1.14
- relative viability ([6]; first compound 0.03162 µM): 0.72
- relative viability ([6]; first compound 0.1 µM): 0.329
- relative viability ([6]; first compound 0.3162 µM): 0.207
- relative viability ([6]; first compound 1 µM): 0.236
- relative viability ([7]; first compound 0.01 µM): 1.3
- relative viability ([7]; first compound 0.03162 µM): 1.15
- relative viability ([7]; first compound 0.1 µM): 1.27
- relative viability ([7]; first compound 0.3162 µM): 1.08
- relative viability ([7]; first compound 1 µM): 1.11
- relative viability ([8]; first compound 0.01 µM): 0.768
- relative viability ([8]; first compound 0.03162 µM): 0.866
- relative viability ([8]; first compound 0.1 µM): 0.737
- relative viability ([8]; first compound 0.3162 µM): 0.748
- relative viability ([8]; first compound 1 µM): 0.758
- relative viability ([9]; first compound 0.01 µM): 0.968
- relative viability ([9]; first compound 0.03162 µM): 0.946
- relative viability ([9]; first compound 0.1 µM): 1.02
- relative viability ([9]; first compound 0.3162 µM): 1.09
- relative viability ([9]; first compound 1 µM): 0.591
- relative viability ([10]; first compound 0.01 µM): 1.07
- relative viability ([10]; first compound 0.03162 µM): 1.14
- relative viability ([10]; first compound 0.1 µM): 1.1
- relative viability ([10]; first compound 0.3162 µM): 1.1
- relative viability ([10]; first compound 1 µM): 0.864
- relative viability ([11]; first compound 0.01 µM): 0.938
- relative viability ([11]; first compound 0.03162 µM): 0.895
- relative viability ([11]; first compound 0.1 µM): 0.797
- relative viability ([11]; first compound 0.3162 µM): 0.621
- relative viability ([11]; first compound 1 µM): 0.162
